Key:
[1] = Oral clearance of SPP100 following single oral dose of SPP100 600 mg capsule studied in healthy human; assay type: ADME, organism-based; conditions: plasma
[2] = Excretion (0-168h) of aliskiren in urine following intravenous administration of [14C] aliskiren hemifumarate at 1 mg.Kg-1 level in marmoset; assay type: ADME, organism-based, Callithrix jacchus; conditions: in vivo
[3] = Bioavailability of aliskiren in receiver rat following duodenal infusion of radioactivity through bile from donor rat treated with single intravenous administration of 10 mg.Kg-1 [14C] aliskiren hemifumarate; assay type: ADME, organism-based, HAN:WIST(SPF); conditions: in vivo
[4] = % of radioactivity recovered as aliskiren in plasma following intravenous administration of [14C] aliskiren hemifumarate at 10 mg.Kg-1 level in rat; assay type: ADME, organism-based, Albino HAN:WIST; conditions: in vivo
[5] = Concentration of radioactivity in carcass following oral administration of [14C] aliskiren hemifumarate at 100 mg.Kg-1 level measured on day 7 in rat; assay type: ADME, organism-based, Lister-Hooded; conditions: in vivo
[6] = Cmax of [14C] aliskiren hemifumarate following single intravenous dose of [14C] aliskiren hemifumarate at 10 mg.Kg-1 level in mouse; assay type: ADME, organism-based, TgRasH2, Plasma; conditions: in vivo
[7] = Faecal elimination of aliskiren following single intravenous dose of [14C] aliskiren hemifumarate at 10 mg.Kg-1 level in mouse; assay type: ADME, organism-based, TgRasH2, Feces; conditions: in vivo
[8] = Excretion of radioactivity (0-24h) in faeces following single oral dose of 500 mg.Kg-1 [14C] aliskiren hemifumarate in mouse; assay type: ADME, organism-based, TgRasH2, Feces; conditions: in vivo
[9] = Excretion of radioactivity (0-72h) in urine following single intravenous dose of 10 mg.Kg-1 [14C] aliskiren hemifumarate in mouse; assay type: ADME, organism-based, TgRasH2; conditions: in vivo
[10] = Cmax (0-96h) of total radioactivity following oral administration of [14C] aliskiren hemifumarate at 100 mg.Kg-1 level in rat; assay type: ADME, organism-based, Albino HAN:WIST, Plasma; conditions: in vivo
[11] = Elimination (0-96h) of radioactivity via biliary route following oral administration of [14C] aliskiren hemifumarate at 100 mg.Kg-1 level in rat; assay type: ADME, organism-based, Albino HAN:WIST, Bile; conditions: in vivo
Cytochrome P450 3A5 = Cytochrome P450 3A5 (Homo sapiens, UniProt P20815); experiment: Metabolic clearance (ul.min.nmol-1 CYP) of aliskiren hemifumarate for CYP3A5 was determined in human liver microsome incubated with [14C]SPP100 hemifumarate; assay type: ADME; conditions: microsomes
Sequence of Cytochrome P450 3A5 (P20815 whole entry): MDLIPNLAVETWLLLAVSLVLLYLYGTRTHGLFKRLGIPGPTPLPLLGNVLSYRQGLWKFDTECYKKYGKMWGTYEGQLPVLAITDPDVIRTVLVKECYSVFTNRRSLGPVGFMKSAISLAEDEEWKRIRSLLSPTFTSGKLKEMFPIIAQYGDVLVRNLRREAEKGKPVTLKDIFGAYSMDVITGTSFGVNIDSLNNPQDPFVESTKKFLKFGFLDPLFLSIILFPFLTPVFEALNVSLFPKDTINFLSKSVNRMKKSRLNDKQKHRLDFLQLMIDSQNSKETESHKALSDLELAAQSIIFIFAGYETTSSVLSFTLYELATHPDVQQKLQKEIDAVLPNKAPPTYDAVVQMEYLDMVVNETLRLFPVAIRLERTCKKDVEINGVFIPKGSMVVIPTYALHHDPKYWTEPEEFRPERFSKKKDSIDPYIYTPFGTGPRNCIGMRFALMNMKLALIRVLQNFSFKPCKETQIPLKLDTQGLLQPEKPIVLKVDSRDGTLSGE

[12] = Mean excretion of radioactivity (24-48h) in urine and faeces following single intravenous dose of 10 mg.Kg-1 [14C] aliskiren hemifumarate in rat; assay type: ADME, organism-based, Albino HAN:WIST, Urine/Feces; conditions: in vivo
[13] = Excretion of radioactivity (72-96h) in faeces following single intravenous dose of 10 mg.Kg-1 [14C] aliskiren hemifumarate in rat; assay type: ADME, organism-based, Albino HAN:WIST, Feces; conditions: in vivo
[14] = Mean excretion of radioactivity (72-96h) in urine and faeces following single intravenous dose of 10 mg.Kg-1 [14C] aliskiren hemifumarate in rat; assay type: ADME, organism-based, Albino HAN:WIST, Urine/Feces; conditions: in vivo
[15] = Concentration of radioactivity in the liver following repeated oral administration of [14C] aliskiren hemifumarate at 100 mg.Kg-1 level studied at 24h after 3rd dose in rat; assay type: ADME, organism-based, Albino HAN:WIST; conditions: in vivo
[16] = Excretion of radioactivity (0-384h) in faeces following 10 day repeated oral administration of [14C] aliskiren hemifumarate at 100 mg.Kg-1 level studied in rat; assay type: ADME, organism-based, Albino HAN:WIST, Feces; conditions: in vivo
Cytochrome P450 3A4 = Cytochrome P450 3A4 (Homo sapiens, UniProt P08684); experiment: Activity of human recombinant CYP3A4 assessed as enzyme contribution (% total relative CL) towards [14C]SPP100 hemifumarate metabolism in human liver microsome; assay type: ADME; conditions: microsomes
Sequence of Cytochrome P450 3A4 (P08684 whole entry): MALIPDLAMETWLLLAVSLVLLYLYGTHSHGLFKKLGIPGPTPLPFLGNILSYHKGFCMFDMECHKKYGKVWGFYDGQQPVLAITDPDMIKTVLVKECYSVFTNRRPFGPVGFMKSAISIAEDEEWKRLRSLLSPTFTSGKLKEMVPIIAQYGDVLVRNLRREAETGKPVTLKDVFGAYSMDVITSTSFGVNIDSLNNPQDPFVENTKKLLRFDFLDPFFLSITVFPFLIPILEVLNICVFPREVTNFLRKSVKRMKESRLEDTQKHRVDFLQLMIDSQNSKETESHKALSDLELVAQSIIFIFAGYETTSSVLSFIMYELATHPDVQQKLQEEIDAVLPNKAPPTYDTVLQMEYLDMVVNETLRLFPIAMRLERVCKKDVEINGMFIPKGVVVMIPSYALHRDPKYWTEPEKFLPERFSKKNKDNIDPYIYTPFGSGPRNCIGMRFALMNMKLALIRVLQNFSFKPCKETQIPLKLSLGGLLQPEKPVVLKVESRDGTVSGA

[17] = AUC of aliskiren hemifumarate following single dosing of SPP100B oral solution at 40 mg level studied on day 1 in men; assay type: ADME, organism-based; conditions: male, human, plasma
[18] = Cmax of aliskiren hemifumarate following 8 day once-daily dosing of SPP100B oral solution at 80 mg level studied on day 8 in men; assay type: ADME, organism-based; conditions: male, human, plasma
[19] = Effect of 2 week oral dosing of aliskiren hemifumarate at 100 mg.Kg-1 level on blood urea nitrogen level in female Callithrix jacchus; assay type: toxicity, organism-based, Plasma; conditions: marmoset, 336 h
[20] = Effect of 2 week oral dosing of aliskiren hemifumarate at 50 mg.Kg-1 level on plasma creatinine level in male Callithrix jacchus; assay type: toxicity, organism-based; conditions: marmoset, 336 h
[21] = Effect of 2 week oral dosing of aliskiren hemifumarate at 50 mg.Kg-1 level on plasma magnesium level in female Callithrix jacchus; assay type: toxicity, organism-based; conditions: marmoset, 336 h
[22] = Cmax of aliskiren hemifumarate following 2 week oral dosing of aliskiren hemifumarate at 10 mg.Kg-1 level studied on day 1 in female Callithrix jacchus; assay type: ADME, organism-based; conditions: marmoset, plasma
[23] = Cmax of aliskiren hemifumarate following 2 week oral dosing of aliskiren hemifumarate at 10 mg.Kg-1 level studied on day 14 in female Callithrix jacchus; assay type: ADME, organism-based; conditions: marmoset, plasma
[24] = Effect of 4 week oral dietary dosing of aliskiren hemifumarate at 1500 mg.Kg-1 level on density of uterine gland in female mouse; assay type: toxicity, organism-based, CB6F1-TGrasH2, Endometrial gland; conditions: in vivo, 672 h
[25] = AUC/dose (0-96h) of unlabeled aliskiren hemifumarate following intravenous administration of aliskiren hemifumarate at 10 mg.Kg-1 level in rat; assay type: ADME, organism-based, Albino HAN:WIST, Plasma; conditions: in vivo
[26] = Tmax of aliskiren hemifumarate following 4 week oral dietary dosing of aliskiren hemifumarate at 1500 mg.Kg-1 level in male mouse; assay type: ADME, organism-based; conditions: CB6F1-TGrasH2, mouse, in vivo
[27] = Tmax of aliskiren hemifumarate following 4 week oral dietary dosing of aliskiren hemifumarate at 2000 mg.Kg-1 level in female mouse; assay type: ADME, organism-based; conditions: CB6F1-TGrasH2, mouse, in vivo
[28] = Cmax/dose of aliskiren hemifumarate following 4 week oral dietary dosing of aliskiren hemifumarate at 500 mg.Kg-1 level in male mouse; assay type: ADME, organism-based, CB6F1-TGrasH2; conditions: in vivo, 672 h
[29] = Cmax/dose of aliskiren hemifumarate following 4 week oral dietary dosing of aliskiren hemifumarate at 1500 mg.Kg-1 level in female mouse; assay type: ADME, organism-based, CB6F1-TGrasH2; conditions: in vivo, 672 h
[30] = Cmax/dose of aliskiren hemifumarate following 4 week oral dietary dosing of aliskiren hemifumarate at 2000 mg.Kg-1 level in female mouse; assay type: ADME, organism-based, CB6F1-TGrasH2; conditions: in vivo, 672 h
[31] = AUC (0-24h) of aliskiren hemifumarate following 4 week oral dietary dosing of aliskiren hemifumarate at 1500 mg.Kg-1 level in male mouse; assay type: ADME, organism-based; conditions: CB6F1-TGrasH2, mouse, plasma
[32] = AUC(0-24h) of aliskiren hemifumarate following 2 week oral dosing of aliskiren hemifumarate at 50 mg.Kg-1 level studied on day 14 in male Callithrix jacchus; assay type: ADME, organism-based; conditions: marmoset, plasma
[33] = Tmax of aliskiren hemifumarate following repeated oral administration of [14C] aliskiren hemifumarate at 100 mg.Kg-1 level studied after 2h of dosing on day 10 in rat; assay type: ADME, organism-based, Albino HAN:WIST; conditions: in vivo
[34] = AUC (0-96 or 0-168h) of unlabeled aliskiren hemifumarate following single intravenous administration of aliskiren hemifumarate at 1 mg.Kg-1 level in marmoset; assay type: ADME, organism-based, Callithrix jacchus; conditions: plasma

COCCCOc1cc(C[C@@H](C[C@H](N)[C@@H](O)C[C@H](C(=O)NCC(C)(C)C(N)=O)C(C)C)C(C)C)ccc1OC
CL/F [1]: 3700 mL/min
Compound recovery [2]: 3%
F [3]: < 3%
Compound recovery [4]: > 40%

COCCCOc1cc(C[C@@H](C[C@H](N)[C@@H](O)C[C@H](C(=O)NCC([14CH3])([14CH3])C(N)=O)C(C)C)C(C)C)ccc1OC.O=C(O)/C=C/C(=O)O
Radiolabel recovery [5]: OUTCOME = Observed, VALUE = residues of radioactivity remained in the carcass at 7 days after dosing
Cmax [6]: 14.6 µM
Radiolabel recovery [7]: OUTCOME = Observed, VALUE = Elimination of aliskiren occurred mainly via the biliary or faecal route
Radiolabel recovery [8]: OUTCOME = Observed/Most of the radioactivity administered was excreted during first 24h after administration and the main route of excretion was the faecal pathway
Radiolabel recovery [9]: 87.94%
Cmax [10]: 0.416 µM
Cmax ([10]; iv, 10 mg/kg): 21.2 µM
Radiolabel recovery [11]: OUTCOME = Observed/Elimination of radioactivity was mainly via biliary route
CL (Cytochrome P450 3A5): 47 µL·min/nmol
Radiolabel recovery [12]: 28.9%
Radiolabel recovery [13]: 2.07%
Radiolabel recovery [14]: 2.24%
Radiolabel recovery [15]: OUTCOME = Detected
Radiolabel recovery [16]: 102%
Activity (Cytochrome P450 3A4): 99.6%

COCCCOc1cc(C[C@@H](C[C@H](N)[C@@H](O)C[C@H](C(=O)NCC(C)(C)C(N)=O)C(C)C)C(C)C)ccc1OC.COCCCOc1cc(C[C@@H](C[C@H](N)[C@@H](O)C[C@H](C(=O)NCC(C)(C)C(N)=O)C(C)C)C(C)C)ccc1OC.O=C(O)/C=C/C(=O)O [ALISKIREN FUMARATE]
AUC [17]: 28.5 ng·h/mL
Cmax [18]: 12.7 ng/mL
BUN_CHANGE_BY [19]: 401%
CREAT_CHANGE_BY [20]: 130%
Plasma magnesium_CHANGE_BY [21]: 130%
Cmax [22]: 3960 ng/mL
Cmax [23]: 6730 ng/mL
Change in density of uterine gland [24]: OUTCOME = Decreased. No animals died during the study.
AUC normalised [25]: 1.26 (umol.h/L)/(mg/kg)
Tmax [26]: 3 h
Tmax [27]: 0.5 h
Cmax normalised [28]: 0.624 (ng/mL)/(mg/kg/day)
Cmax normalised [29]: 0.68 (ng/mL)/(mg/kg/day)
Cmax normalised [30]: 0.615 (ng/mL)/(mg/kg/day)
AUC(0-t) at 24 h [31]: 4140 ng·h/mL
AUC at 24 h [32]: 107000 ng·h/mL
Tmax(10) [33]: 218 h
AUC at 168 h [34]: 49 µM·h

Source: ChEMBL document CHEMBL3508693 (2016)
